Reference: ChEMBL document CHEMBL4602609, “Virtual screening to identify potent sepiapterin reductase inhibitors” (Bioorg Med Chem Lett, 2020)

Target: Sepiapterin reductase (Homo sapiens, UniProt P35270)
Experiment: Inhibition of sepiapterin reductase (unknown origin)

Sequence of Sepiapterin reductase (P35270 whole entry): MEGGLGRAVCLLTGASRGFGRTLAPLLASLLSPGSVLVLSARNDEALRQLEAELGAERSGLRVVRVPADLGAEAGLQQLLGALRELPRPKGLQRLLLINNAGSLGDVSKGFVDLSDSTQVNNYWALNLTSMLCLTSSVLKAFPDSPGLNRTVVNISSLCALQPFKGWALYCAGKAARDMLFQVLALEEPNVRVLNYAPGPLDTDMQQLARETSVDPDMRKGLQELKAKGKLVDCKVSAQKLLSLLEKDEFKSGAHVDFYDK

| Compound | IC50 (read-out: IC50) [µM] | IC50 (read-out: pIC50 (converted)) [µM] | further results |
| --- | --- | --- | --- |
| Cc1nn(-c2ccccn2)c2ncc(C(=O)O)cc12 | > 19 |  |  |
| Cc1ccc(O)c(C(=O)c2cnc3c(c2)c(C)nn3-c2ccccn2)c1 | 1.72 |  |  |
| COc1ccc(O)c(C(=O)c2cnc3c(c2)c(C)nn3-c2cccc(C)c2)c1 | > 19 |  |  |
| Cc1nn(-c2ccccc2)c2ncc(C(=O)c3cc(F)ccc3O)cc12 | 0.18 |  |  |
| COc1cc(C(F)(F)F)ccc1-c1nc(Cl)cc2cc(S(=O)(=O)Nc3nccs3)ccc12 |  | 1.78 |  |
| FC(F)(F)Oc1cccc(-n2nnnc2N2CCN(c3ncnc4sc5c(c34)CCC5)CC2)c1 |  | 7.59 |  |
| Cc1nn(-c2ccccc2F)c2ncc(C(=O)c3ccccc3O)cc12 | 0.05 |  |  |
| Cc1nn(C2CCCS2(=O)=O)c2ncc(C(=O)c3cc(F)ccc3O)cc12 (stereo not given) | 0.02 |  |  |
| Cc1ccc(O)c(C(=O)c2cnc3c(c2)c(C)nn3C)c1 | 0.97 |  |  |
| Cc1ccc(C(=O)c2ccccc2O)c(O)n1 |  | 8.13 |  |
| Cc1n[nH]c2ncc(C(=O)c3cc(F)ccc3O)cc12 | 0.05 |  |  |
| O=C(Nc1nc2ccc(CN3CCCCC3)cc2n1[C@H]1CC[C@@H](C(=O)O)CC1)c1ccc(F)cc1 |  | 3.02 |  |
| O=C(O)c1ccc2c(C(c3ccc(Cl)cc3Cl)c3c[nH]c4cc(C(=O)O)ccc34)c[nH]c2c1 |  | 9.55 |  |
| Cc1nn(C2CCOC2)c2ncc(C(=O)c3ccccc3O)cc12 (stereo not given) | 0.03 |  |  |
| Cc1cccc(-n2nc(C)c3cc(C(=O)c4ccccc4O)cnc32)c1 | 1.36 |  |  |
| Cc1nn(-c2ccncn2)c2ncc(C(=O)c3ccccc3O)cc12 | 0.14 |  |  |
| Cc1nn(-c2ccc(F)cc2)c2ncc(C(=O)c3ccccc3O)cc12 | 0.82 |  |  |
| COc1ccc(O)c(C(=O)c2cnc3c(c2)c(C)nn3-c2cccc(Cl)c2)c1 | > 19 |  |  |
| COc1cc(C(F)(F)F)ccc1-c1nccc2cc(S(=O)(=O)Nc3ccc(F)cn3)ccc12 |  | 1.78 |  |
| Cc1nn(-c2ccccn2)c2ncc(C(=O)N(C)C)cc12 | > 19 |  |  |
| Cc1nn(-c2ncccn2)c2ncc(C(=O)c3ccccc3O)cc12 | 0.14 |  |  |
| CCn1ncc(C(=O)c2cc(Cl)c(N(C)S(=O)(=O)N(C)C)cc2OC)c1O |  | 0.0575 |  |
| CCOC(=O)c1c(C)n(C)c2cc(Nc3ccccc3)c(O)cc12 |  | 6.76 |  |
| Cc1ccc(-n2nc(C)c3cc(C(=O)c4cc(C)ccc4O)cnc32)cc1 | > 19 |  |  |
| Cc1nn(CCO)c2ncc(C(=O)c3cc(Cl)ccc3O)cc12 | 0.04 |  |  |

| Compound | IC50 (read-out: IC50) [µM] | IC50 (read-out: pIC50 (converted)) [µM] | further results |
| --- | --- | --- | --- |
| Cc1nn(C)c2ncc(C(=O)c3ccccc3O)cc12 | 0.08 |  |  |
| CC1(C)C=Cc2c(c(CCO)c3occ(-c4ccc(O)c(O)c4)c(=O)c3c2O)O1 |  | 6.17 |  |
| O=S(=O)(Nc1ccccn1)c1ccc2c(c1)OCCO2 |  | 0.603 |  |
| O=C(CN(c1cccc(Cl)c1)S(=O)(=O)c1cccnc1)N[C@H]1CC[C@H](n2c(=O)[nH]c3ccccc32)CC1 |  | 9.12 |  |
| CC1(C)C(O)=C(C(N)=O)C(=O)c2cc(C(=O)NCCc3ccccc3)ccc21 |  | 3.24 |  |
| Cc1cc(C(=O)C2C(=O)CC(C)CC2=O)c(C)c2c1S(=O)(=O)CCc1cn(C)nc1-2 (stereo not given) |  | 0.324 |  |
| Cc1nn(CCO)c2ncc(C(=O)c3cc(F)ccc3O)cc12 | 0.05 |  |  |
| COc1ccc(O)c(C(=O)c2cnc3c(c2)c(C)nn3-c2ccccc2)c1 | 17 |  |  |
| Cc1ccnc(-n2nc(C)c3cc(C(=O)c4ccccc4O)cnc32)c1 | 0.05 |  |  |
| Cc1nn(C2CCOCC2)c2ncc(C(=O)c3ccccc3O)cc12 | 0.02 |  |  |
| Cc1nn(-c2ccccn2)c2ncc(C(=O)c3cc(Cl)ccc3O)cc12 | 0.08 |  |  |
| Cc1nn(-c2ccccc2)c2ncc(C(=O)c3ccccc3O)cc12 | 0.86 |  |  |
| Cc1nn(-c2ccccn2)c2ncc(C(=O)c3ccccc3O)cc12 | 0.18 | 0.0661 |  |
| O=C(Nc1cccc(C(F)(F)F)c1)N1CCC(S(=O)(=O)Nc2nccs2)CC1 |  | 9.55 |  |
| CCOC(=O)CNCc1c(C(=O)CC)c2cc(OC)c(Br)cc2n1C |  | 7.94 |  |
| O=S(=O)(Nc1nccs1)c1ccc2c(c1)OCCN2CCc1ccncc1 |  | 0.575 |  |
| Cn1nc(-c2cccnc2)c2c1NC(=O)C[C@@H]2c1ccc2cccc(O)c2n1 |  | 4.37 |  |
| Cc1nn(C)c2ncc(C(=O)c3cc(F)ccc3O)cc12 | 0.04 |  |  |
| Cc1nn(-c2ccccn2)c2ncc(C(=O)c3cc(F)ccc3O)cc12 | 0.04 |  |  |
| COc1ccc(O)c(C(=O)c2cnc3c(c2)c(C)nn3C)c1 | 2.5 |  |  |
| CCOC(=O)C1=C(O)C2(CCC(=CC(=O)OC)CC2)c2ccc(Cl)cc2C1=O (stereo not given) |  |  | pIC50: 5.39 |
| CCCc1cc(C(=O)N2CCC(C3Nc4ccccc4S(=O)(=O)N3)CC2)[nH]n1 (stereo not given) |  | 2.95 |  |
| Cc1ccc(O)c(C(=O)c2cnc3c(c2)c(C)nn3-c2ccc(F)cc2)c1 | > 19 |  |  |
| Cc1ccc(O)c(C(=O)c2cnc3c(c2)c(C)nn3-c2ccccc2)c1 | > 19 |  |  |
